# Reference: US20120035206A1, “PREPARATION AND APPLICATION OF NOVEL ANTIBACTERIAL AND ANTICANCER COMPOUNDS AND THEIR DERIVATIVES” (priority 2009, published 2012)
# How the values were obtained:
# Format in all cases: cell-based
# M. gypseum = test: In vitro antibacterial (antifungal) test, two-fold dilution MIC; conditions: Nannizzia gypsea, RPMI 1640, culture 2-7 days
# Experimental: (§1) In vitro antibacterial experiments of 25 compounds as anti-bacterial and anti-cancer compounds in the patent were tested using 14 kinds of bacteria. Tested bacteria: C. albicans, C. tropicalis, C. neoformans, E. floccosum, M. gypseum, A. niger, S. schenekn, C. parapsilosis, C. glabrata, C. Krusei, Trichoderma, Gibberella, Setrosphaeria turcica, Fusarium Oxysporum Vasinfectum. (Bacteria were from the Dermatology Hospital of Chinese Academy of Medical Sciences, Nanjing, China.)
# (§2) The Preparation of tested Bacteria solution was following: incubated Bacteria were added to 5 ml physiological saline, and then they were mashed and placed with ultrasound. The solution was fully mixed, and insoluble substances were removed. The treated solution was called the original bacterium solution. In the test, the bacteria concentration in the original bacterium solution was adjusted to […].
# (§3) Tested Methods: the tested compounds were dissolved in dimethyl sulfoxide. and the solution was diluted with sterile distilled water. And the distilled solution was added to sterilized RPMI 1640 medium. The concentration of the compounds were adjusted to 256, 128, 64, 32, 16, 8, 4, 2, 1, 0.5, 0.25, 0.125 ug*ml-1. Then the adjusted solutions were inoculated with tested bacteria, and the tested systems were placed in the constant temperature oven to culture for 2-7 days. The concentration at which there was no growing of fungi was taken as the minimum inhibitory concentration (MIC).
# C. neoformans = test: as above; conditions: Cryptococcus neoformans, RPMI 1640, culture 2-7 days
# Experimental: as §1, §2, §3
# C. glabrata = test: as above; conditions: Nakaseomyces glabratus, RPMI 1640, culture 2-7 days
# Experimental: as §1, §2, §3
# C. parapsilosis = test: as above; conditions: Lodderomyces parapsilosis, RPMI 1640, culture 2-7 days
# Experimental: as §1, §2, §3
# S. schenekn = test: as above; conditions: RPMI 1640, culture 2-7 days
# Experimental: as §1, §2, §3
# E. floccosum = test: as above; conditions: Epidermophyton floccosum, RPMI 1640, culture 2-7 days
# Experimental: as §1, §2, §3
# C. albicans = test: as above; conditions: Candida albicans, read-out: MIC C. albicas
# Experimental: as §1, §2, §3
# C. Krusei = test: as above; conditions: Pichia kudriavzevii, RPMI 1640, culture 2-7 days
# Experimental: as §1, §2, §3
# Setosphaeria turcica = test: as above; conditions: Exserohilum turcicum, RPMI 1640, culture 2-7 days
# Experimental: as §1, §2, §3
# C. tropicalis = test: as above; conditions: Candida tropicalis, RPMI 1640, culture 2-7 days
# Experimental: as §1, §2, §3
# Terchoderma = test: as above; conditions: Trichoderma, RPMI 1640, culture 2-7 days
# Experimental: as §1, §2, §3
# CRL-1435PC-3 = test: In vitro anticancer MTT experiment; conditions: concentration 5 ug/ml, 48 h or 72 h, read-out: inhibition ratio CRL-1435PC-3
# Experimental: (§4) In vitro anticancer experiments of 25 compounds as anti-bacterial and anti-cancer compounds in the patent were tested. In the test, 14 kinds of cancer cells were used as tested cancer cells. And the results obtained by MTT method were shown in table 2 (the inhibition ratio was obtained when the concentration was 5 ug/ml). Tested Cancer Cells: SGC7901, HTB-38HT-29, CRL-2233NU-398, CRL-1469PANC-1, B0192, HTB-131MDA-453, CRL-1435PC-3, FTC133, AS24391, HTB-95637. (Cancer cells were from Chinese Military Academy of Medical Sciences). Cells Culture: Culture solution was composed of RPMI 1640 medium, 10% (VAT) Fetal calf serum and 0.01% L-glutamine. Cultured cells were maintained at 37° C. in an incubator with 5% CO2. The cells at logarithmic growth phase were used in the experiment. MTT Experiment: Single cell suspension was obtained by digesting cells with 0.25% trypsin. The cells at logarithmic growth phase were collected and seeded in a 96-well plate at a concentration of 6000-7000 cells per well. After culturing for 12 h at 37° C. in the incubator with 5% CO2, the cells were again incubated with the tested compounds of various concentrations for 48 h or 72 h. Pure cultures and cells without drug were taken as blank reference and negative reference, and 8 Wells of each group were taken. Twenty microliter of MTT (5 mg/mL) was added to each well, and the mixed solutions were incubation for 4 h. The formazan product was dissolved by dimethyl sulfoxide (DMSO, 150 μL), and the optical density (O.D.) was read at 570 nm. The Inhibition Ratio was calculated by the following formula: Inhibition Ratio=(Anegative control−Asample)/(Anegative control−Ablank control)
# CRL-2233SNU-398 = test: In vitro anticancer MTT experiment; conditions: concentration 5 ug/ml, 48 h or 72 h, read-out: inhibition ratio CRL-2233SNU-398
# Experimental: as §4
# B01092 = test: In vitro anticancer MTT experiment; conditions: concentration 5 ug/ml, 48 h or 72 h, read-out: inhibition ratio B01092
# Experimental: as §4
# CRL-1469PANC-1 = test: In vitro anticancer MTT experiment; conditions: concentration 5 ug/ml, 48 h or 72 h, read-out: inhibition ratio CRL-1469PANC-1
# Experimental: as §4
# HTB-131MDA-MB-453 = test: In vitro anticancer MTT experiment; conditions: concentration 5 ug/ml, 48 h or 72 h, read-out: inhibition ratio HTB-131MDA-MB-453
# Experimental: as §4
# FTC 133 = test: In vitro anticancer MTT experiment; conditions: Homo sapiens, concentration 5 ug/ml, 48 h or 72 h, read-out: inhibition ratio FTC 133
# Experimental: as §4
# A375 = test: In vitro anticancer MTT experiment; conditions: Homo sapiens, A-375, concentration 5 ug/ml, 48 h or 72 h, read-out: inhibition ratio A375
# Experimental: as §4
# HTB-94 = test: In vitro anticancer MTT experiment; conditions: concentration 5 ug/ml, 48 h or 72 h, read-out: inhibition ratio HTB-94
# Experimental: as §4
# HTB-95637 = test: In vitro anticancer MTT experiment; conditions: concentration 5 ug/ml, 48 h or 72 h, read-out: inhibition ratio HTB-95637
# Experimental: as §4
# L428 = test: In vitro anticancer MTT experiment; conditions: Homo sapiens, L-428, concentration 5 ug/ml, 48 h or 72 h, read-out: inhibition ratio L428
# Experimental: as §4
# AS24391 = test: In vitro anticancer MTT experiment; conditions: concentration 5 ug/ml, 48 h or 72 h, read-out: inhibition ratio AS24391
# Experimental: as §4
# SGC7901 = test: In vitro anticancer MTT experiment; conditions: Homo sapiens, SGC-7901, concentration 5 ug/ml, 48 h or 72 h, read-out: inhibition ratio SGC7901
# Experimental: as §4
# HTB-38HT-29 = test: In vitro anticancer MTT experiment; conditions: concentration 5 ug/ml, 48 h or 72 h, read-out: inhibition ratio HTB-38HT-29
# Experimental: as §4
# L1210 = test: In vitro anticancer MTT experiment; conditions: Mus musculus, concentration 5 ug/ml, 48 h or 72 h, read-out: inhibition ratio L1210
# Experimental: as §4
# [1] = system: Fusarium oxysporum vasinfectum; test: In vitro antibacterial (antifungal) test, two-fold dilution MIC; conditions: RPMI 1640, culture 2-7 days
# Experimental: as §1, §2, §3
SMILES,MIC (M. gypseum),MIC (C. neoformans),MIC (C. glabrata),MIC (C. parapsilosis),MIC (S. schenekn),MIC (E. floccosum),MIC (C. albicans),MIC (C. Krusei),MIC (Setosphaeria turcica),MIC (C. tropicalis),MIC (Terchoderma),inhibition at 5 µg/mL (CRL-1435PC-3),inhibition at 5 µg/mL (B01092),inhibition at 5 µg/mL (HTB-94),inhibition at 5 µg/mL (HTB-95637),inhibition at 5 µg/mL (L428),inhibition at 5 µg/mL (AS24391),inhibition at 5 µg/mL (HTB-38HT-29),inhibition at 5 µg/mL (L1210),MIC [1],other results
"Cc1ccc2c(c1)C(O)/C(=C\Cl)CS2 (centres unmarked) [Compound 25, (E)-3-(chloromethylene)-6-methylthiochroman-4-ol]",16 µg/mL,16 µg/mL,8 µg/mL,16 µg/mL,8 µg/mL,32 µg/mL,4 µg/mL,16 µg/mL,16 µg/mL,,,,,,,,,,,,
"O=C1/C(=C\O)CSc2ccc(F)cc21 [Compound 3, 6-fluorine-3-(hydroxylmethene)thiochroman-4-one]",,16 µg/mL,64 µg/mL,32 µg/mL,64 µg/mL,,32 µg/mL,32 µg/mL,,32 µg/mL,,,,,,,,,,,
"Cc1ccc2c(c1)C(O)/C(=C/Cl)CS2 (centres unmarked) [Compound 17, (Z)-3-(chloromethylene)-6-methylthiochroman-4-ol]",4 µg/mL,16 µg/mL,32 µg/mL,16 µg/mL,32 µg/mL,16 µg/mL,16 µg/mL,16 µg/mL,16 µg/mL,4 µg/mL,32 µg/mL,,,,,,,,,,
"O=C1/C(=C/Cl)SCc2ccccc21 [Compound 14, (Z)-3-(chloromethylene)isothiochroman-4-one]",4 µg/mL,4 µg/mL,16 µg/mL,32 µg/mL,8 µg/mL,16 µg/mL,4 µg/mL,64 µg/mL,,32 µg/mL,,48%,56.8%,45.6%,40.5%,34.6%,36.6%,42.6%,78%,,inhibition at 5 µg/mL (CRL-2233SNU-398): 58.9%; inhibition at 5 µg/mL (CRL-1469PANC-1): 40.6%; inhibition at 5 µg/mL (HTB-131MDA-MB-453): 56.7%; inhibition at 5 µg/mL (FTC 133): 30.4%; inhibition at 5 µg/mL (A375): 45.5%; inhibition at 5 µg/mL (SGC7901): 50.6%
"Cc1ccc(S/C=C2\CSc3ccc(F)cc3C2=O)cc1F [Compound 12, (Z)-6-fluoro-3-(((3-fluoro-4-methylphenyl)thio)methylene)thiochroman-4-one]",,8 µg/mL,,,64 µg/mL,,,64 µg/mL,,,,56.6%,48.4%,47.5%,60.5%,56.8%,49%,43.2%,90.9%,16 µg/mL,inhibition at 5 µg/mL (CRL-1469PANC-1): 45.6%; inhibition at 5 µg/mL (FTC 133): 54.5%; inhibition at 5 µg/mL (A375): 60.4%
"O=C1/C(=C\Cl)CSc2ncccc21 [Compound 27, (E)-3-(chloromethylene)-2H-thiopyrano[2,3-b]pyridin-4(3H)-one]",8 µg/mL,8 µg/mL,16 µg/mL,4 µg/mL,2 µg/mL,16 µg/mL,4 µg/mL,8 µg/mL,32 µg/mL,4 µg/mL,4 µg/mL,,,,,,,,,16 µg/mL,
"Cc1cc2c(cc1F)SC/C(=C\Br)C2=O [Compound 9, (Z)-3-(bromomethylene)-7-fluoro-6-methylthiochroman-4-one]",64 µg/mL,1 µg/mL,64 µg/mL,8 µg/mL,32 µg/mL,32 µg/mL,64 µg/mL,4 µg/mL,32 µg/mL,32 µg/mL,64 µg/mL,36%,39.4%,65.6%,55.8%,50.1%,57%,74.6%,89.5%,64 µg/mL,inhibition at 5 µg/mL (CRL-2233SNU-398): 45.6%; inhibition at 5 µg/mL (CRL-1469PANC-1): 60.1%; inhibition at 5 µg/mL (HTB-131MDA-MB-453): 56.7%; inhibition at 5 µg/mL (SGC7901): 50.4%
"O=C1/C(=C/Cl)CSc2ccc(F)cc21 [Compound 7, (Z)-3-(chloromethylene)-6-fluorothiochroman-4-one]",8 µg/mL,16 µg/mL,16 µg/mL,8 µg/mL,2 µg/mL,4 µg/mL,4 µg/mL,16 µg/mL,16 µg/mL,16 µg/mL,8 µg/mL,51.2%,54.8%,65.4%,60.1%,57.3%,58.3%,45.7%,79.8%,32 µg/mL,inhibition at 5 µg/mL (CRL-2233SNU-398): 49.9%; inhibition at 5 µg/mL (HTB-131MDA-MB-453): 48.6%; inhibition at 5 µg/mL (FTC 133): 52.6%; inhibition at 5 µg/mL (A375): 56%
